Measured values taken from US11634426B2, “Selective estrogen receptor degraders” (Eli Lilly and Company, priority 2018, dated 2023).

Biological target: ERα receptor (Homo sapiens (Human), UniProt P03372)
Assay: PRα induction assay in MCF7 cells (ERα agonism)
Format: cell-based
Experimental: The purpose of the following PRα induction assay is to determine whether a test compound has agonistic activity against ERα receptor (an agonist would be expected to activate the receptor).
Culture MCF7 (purchased from ATCC HTB-22) in DMEM media supplemented with 10% FBS, 0.01 mg/mL human insulin 1 and 1% penicillin/streptomycin antibiotics and plate the cells (prior to becoming 70% confluent) in 384-well flat-bottom plates at a density of 4,000 cells per well in 20 μL volume in DMEM phenol red free media containing 10% FBS (charcoal stripped). Incubate the cells overnight in a cell culture incubator (5% CO2, 95% relative humidity at 37° C.) and allow the cells to attach to the plate. The following day, dose the cells with test compound. Use an Echo 555 acoustic dispenser to prepare compound serial dilutions (1:3) in a range from 6 μM to 0.0003 μM. Dose the cells with the addition of the test compound (5 μL) from the serial dilution plate to the cell plate producing a final DMSO concentration of 0.2% with a final concentration of the test compound dose range between 2 and 0.0001 μM. For the maximum point use media containing 0.2% of DMSO and for the minimum point, use fulvestrant diluted at […] final concentrations in the growth media containing 0.2% DMSO. After dosing with the test compound, incubate the cell plates at 37° C. and 5% CO2 for 24 hours. Fix the cells by adding 14% para-formaldehyde (10 μL) for 30 minutes at room temperature. Wash cells once with PBS (20 μL) and incubate with PBS (20 μL) containing 0.5% (v/v) TWEEN® 20 for 1 hour. Wash cells twice with PBS (20 μL) containing 0.05% TWEEN® 20 and block with 3% BSA in PBS containing 0.05% TWEEN® 20 and 0.1% TRITON™ X-100 (20 μL/well) for 1 hour at room temperature. […]
The following day, wash cells with PBS 0.05% TWEEN® 20 (2×20 μL) and incubate with secondary antibody (20 μL/well) (1:1000 dilution, Goat anti-rabbit IgM ALEXA FLUOR™ 488) in PBS 1% BSA for 105 minutes at room temperature. […] Scan plates with ACUMEN EXPLORER™ [Laser-scanning fluorescence microplate cytometer manufactured by TTP LABTECH LTD] to measure PRα. […]

Sequence of ERα receptor (P03372 whole entry): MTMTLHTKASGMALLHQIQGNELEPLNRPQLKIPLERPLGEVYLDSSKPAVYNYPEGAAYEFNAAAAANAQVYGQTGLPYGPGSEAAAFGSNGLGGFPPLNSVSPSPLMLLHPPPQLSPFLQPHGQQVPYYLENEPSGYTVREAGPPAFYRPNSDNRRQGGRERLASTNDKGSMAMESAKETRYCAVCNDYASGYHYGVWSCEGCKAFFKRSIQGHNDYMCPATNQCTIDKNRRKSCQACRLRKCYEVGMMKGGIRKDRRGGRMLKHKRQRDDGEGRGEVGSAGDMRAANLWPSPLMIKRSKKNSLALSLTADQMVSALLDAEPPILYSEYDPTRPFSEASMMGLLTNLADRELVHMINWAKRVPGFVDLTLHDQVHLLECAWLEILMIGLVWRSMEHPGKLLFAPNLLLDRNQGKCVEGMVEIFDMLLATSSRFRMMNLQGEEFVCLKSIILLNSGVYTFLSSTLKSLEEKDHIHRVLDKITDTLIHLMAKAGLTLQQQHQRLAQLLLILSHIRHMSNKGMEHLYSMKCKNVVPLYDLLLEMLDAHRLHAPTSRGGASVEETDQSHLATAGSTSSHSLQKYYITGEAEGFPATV

SMILES | agonistic activity (PRα induction)
Oc1ccc2c3c(cnc2c1)-c1ccc(C(F)(F)F)cc1OC3c1ccc(OCCN2CC(CF)C2)cc1 (racemic) [Example 1, Racemic 5-(4-{2-[3-(Fluoromethyl)azetidin-1-yl]ethoxy}phenyl)-8-(trifluoromethyl)-5H-[1]benzopyrano[4,3-c]quinolin-2-ol] | no significant agonistic activity
Oc1ccc2c3c(cnc2c1)-c1ccc(C(F)(F)F)cc1OC3c1ccc(OCCN2CC(CF)C2)cc1 (single isomer, unassigned; isomer 1) [Example 1A, 5-(4-{2-[3-(Fluoromethyl)azetidin-1-yl]ethoxy}phenyl)-8-(trifluoromethyl)-5H-[1]benzopyrano[4,3-c]quinolin-2-ol, Isomer 1] | no significant agonistic activity
Oc1ccc2c3c(cnc2c1)-c1ccc(C(F)(F)F)cc1OC3c1ccc(OCCN2CC(CF)C2)cc1 (single isomer, unassigned; isomer 2) [Example 1B, 5-(4-{2-[3-(Fluoromethyl)azetidin-1-yl]ethoxy}phenyl)-8-(trifluoromethyl)-5H-[1]benzopyrano[4,3-c]quinolin-2-ol, Isomer 2] | no significant agonistic activity
